# Assay results from patent US20230203081A1, “LINCOSAMIDE ANTIBIOTICS AND USES THEREOF” (President and Fellows of Harvard College, priority 2020, published 2023).
# Like-named read-outs stand apart in the source and are kept apart here.
# Columns and labels:
# Format in all cases: cell-based
# [1] = system: E. faecium Line R & VRE; assay: MIC (broth microdilution or agar dilution, CLSI)
# Outline: (§1)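 Following CLSI guidelines, broth microdilution or agar dilution spans usually 128-0.06 μg/mL (2.5% DMSO final), triplicate runs, clindamycin comparator. Inocula for broth work are 5×10^5 CFU/mL in cation-adjusted Mueller-Hinton; anaerobic strains get specialized handling.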
# [2] = system: A. baumannii ATCC 19606; assay: MIC (broth microdilution or agar dilution, CLSI)
# Outline: (§2)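 Inoculum for broth microdilution was 5×10^5 CFU/mL final, prepared from overnight 35° C blood-agar subcultures (separate handling for streptococcal and anaerobic strains); MICs read by CLSI broth microdilution or agar dilution.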
# [3] = system: E. coli ATCC 25922; assay: MIC (broth microdilution or agar dilution, CLSI); conditions: Escherichia coli
# Outline: as §2
# [4] = system: E. faecalis MMX 847; cErmB; assay: MIC (broth microdilution or agar dilution, CLSI); conditions: Enterococcus faecalis, cErmB
# Outline: as §2
# [5] = system: S. pneumoniae ATCC 6303; assay: MIC (broth microdilution or agar dilution, CLSI)
# Outline: as §2
# [6] = system: P. aeruginosa ATCC 27853; assay: MIC (broth microdilution or agar dilution, CLSI)
# Outline: as §1
# [7] = system: P. aeruginosa ΔAmex OprM; assay: MIC (broth microdilution or agar dilution, CLSI)
# Outline: as §1
# [8] = system: B. fragilis ATCC 25285; assay: MIC (broth microdilution or agar dilution, CLSI); conditions: Bacteroides fragilis, read-out: MIC
# Outline: as §1
# [9] = system: C. difficile ATCC 700057; assay: MIC (broth microdilution or agar dilution, CLSI)
# Outline: as §1
# [10] = system: C. scindens ATCC 35704; assay: MIC (broth microdilution or agar dilution, CLSI)
# Outline: as §1
# [11] = system: E. coli MP-74 LptD mutant; assay: MIC (broth microdilution or agar dilution, CLSI); conditions: Escherichia coli
# Outline: as §1
# [12] = system: E. faecium Clinical VRE; assay: MIC (broth microdilution or agar dilution, CLSI); conditions: Enterococcus faecium, VRE
# Outline: as §1
# [13] = system: E. faecium VRE; assay: MIC (broth microdilution or agar dilution, CLSI); conditions: Enterococcus faecium, VRE
# Outline: as §1
# [14] = system: S. aureus MMX USA 300; MRSA; assay: MIC (broth microdilution or agar dilution, CLSI); conditions: Staphylococcus aureus
# Outline: as §1
# [15] = system: S. aureus MRSA; assay: MIC (broth microdilution or agar dilution, CLSI); conditions: Staphylococcus aureus
# Outline: as §1
# [16] = system: S. aureus cErmA; assay: MIC (broth microdilution or agar dilution, CLSI); conditions: Staphylococcus aureus
# Outline: as §1
# [17] = system: E. faecalis VRE; assay: MIC (CLSI), second E. faecalis VRE line of Table 4; conditions: Enterococcus faecalis, VRE
# Experimental: (§3) Minimum inhibitory concentrations (MICs) were determined by broth microdilution method or agar dilution method following the Clinical and Laboratory Standards Institute guidelines. Standard bacterial strains were obtained from American Type Culture Collection (ATCC). Other bacterial strains were obtained from hospitals and commercial sources, so noted in Table 11. Before the start of the MIC experiment, standard and test compound stock solutions were prepared in dimethyl sulfoxide (DMSO, Aldrich D2650) at a stock concentration of 5,120 μg/mL. The compound concentration range typically employed for each experiment was 128-0.06 μg/mL (2.5% final DMSO concentration). Clindamycin was used as a comparator in all experiments and each experiment was performed in triplicate. Specialized procedures were employed for streptococcal and anaerobic strains. All other bacterial strains were sub-cultured on blood agar plates (tryptic soy agar with 5% sheep blood, Hardy Diagnostics) and incubated overnight at 35° C. Organisms were suspended in cation-adjusted Mueller-Hinton broth (CaMHB, BD 212322) and optical density was adjusted to 0.5 McFarland standard. Suspensions were further diluted to obtain a final inoculum of 5×10^5 CFU/mL for broth microdilution experiments.
# [18] = system: E. faecalis VRE; assay: MIC (CLSI), third E. faecalis VRE line of Table 4; conditions: Enterococcus faecalis, VRE
# Experimental: as §3
# [19] = system: Escherichia coli c-ermB; assay: MIC, clinically derived E. coli with acquired resistance; conditions: Escherichia coli
# Experimental: as §3
# [20] = system: E. coli strain SQ110DTC; assay: MIC in LB medium against E. coli SQ110DTC and its FSA-513018b-resistant mutants (Table 14); conditions: Escherichia coli
# [21] = Enterococcus faecium, E. faecium HAV#319, Line R & Vanco R, read-out: MIC
# [22] = ATCC25922, E. coli HAV#006, ATCC 25922, read-out: MIC
# [23] = E. faecalis HAV#036, MMX 847, mac-resistant, read-out: MIC
# [24] = Streptococcus pneumoniae, ATCC6303, S. pneumoniae HAV#351, ATCC 6303, read-out: MIC
compound,measurement,setting,value
CC[C@H]1OC(=O)[C@H](C)[C@@H](O[C@H]2C[C@@](C)(OC)[C@@H](O)[C@H](C)O2)[C@H](C)[C@@H](O[C@@H]2O[C@H](C)C[C@H](N(C)C)[C@H]2O)[C@](C)(O)C[C@@H](C)CN(C)[C@H](C)[C@@H](O)[C@]1(C)O [Azithromycin],MIC,[1]; [21],8 µg/mL
same,MIC,"[2]; Acinetobacter baumannii, ATCC19606, A. baumanii HAV#010, ATCC 19606, read-out: MIC",64 µg/mL
same,MIC,[3]; [22],4 µg/mL
same,MIC,[4]; [23],> 64 µg/mL
same,MIC,[5]; [24],2 µg/mL
CO/N=C(\C(=O)N[C@@H]1C(=O)N2C(C(=O)O)=C(CSc3nc(=O)c(=O)[nH]n3C)CS[C@H]12)c1csc(N)n1 [Ceftriaxone],MIC,[1]; [21],> 256 µg/mL
same,MIC,"[6]; Pseudomonas aeruginosa, ATCC27853, P. aeruginosa HAV#009, ATCC 27853, read-out: MIC",> 64 µg/mL
same,MIC,[7]; Pseudomonas aeruginosa,16 µg/mL
same,MIC,[3]; [22],0.125 µg/mL
same,MIC,[5]; [24],0.06 µg/mL
"CCC[C@@H]1C[C@@H](C(=O)N[C@@H]([C@H]2O[C@H](SC)[C@H](O)[C@@H](O)[C@H]2O)[C@H](C)Cl)N(C)C1 [Clindamycin, clindamycin, reference compound]",MIC,"[8]; ATCC25285, B. fragilis ATCC 25285",1 µg/mL
same,MIC,"[8]; ATCC25285, B. fragilis HAV#013, ATCC 25285",0.5 µg/mL
same,MIC,"[9]; C. difficile HAV#011, ATCC 700057",8 µg/mL
same,MIC,"[9]; Clostridioides difficile, ATCC700057, C. difficile ATCC 700057, read-out: MIC",8 µg/mL
same,MIC,"[10]; C. scindens HAV#012, ATCC 35704",2 µg/mL
same,MIC,"[10]; [Clostridium] scindens, ATCC35704, C. scindens ATCC 35704, read-out: MIC",2 µg/mL
same,MIC,[11],4 µg/mL
same,MIC,[12],> 128 µg/mL
same,MIC,"[1]; E. faecium HAV#319, Line R & Vanco R",>128 µg/mL
same,MIC,[1]; Enterococcus faecium,> 128 µg/mL
same,MIC,[13],> 128 µg/mL
same,MIC,"[6]; P. aeruginosa HAV#009, ATCC 27853",>128 µg/mL
same,MIC,"[6]; Pseudomonas aeruginosa, ATCC27853",> 128 µg/mL
same,MIC,"[7]; P. aeruginosa HAV#039, ΔAmex OprM",32 µg/mL
same,MIC,[7]; Pseudomonas aeruginosa,32 µg/mL
same,MIC,[14],0.25 µg/mL
same,MIC,[15],0.25 µg/mL
same,MIC,[16],> 128 µg/mL
same,MIC,"[2]; A. baumanii HAV#010, ATCC 19606",>128 µg/mL
same,MIC,"[2]; Acinetobacter baumannii, ATCC19606",> 128 µg/mL
same,MIC,"[3]; ATCC25922, E. coli ATCC 25922",> 128 µg/mL
same,MIC,"[3]; ATCC25922, E. coli ATCC 25922, read-out: MIC",> 64 µg/mL
same,MIC,"[3]; ATCC25922, E. coli HAV#006, ATCC 25922",> 128 µg/mL
same,MIC,[4]; E. faecalis MMX 847,> 128 µg/mL
same,MIC,"[4]; E. faecalis MMX 847, read-out: MIC",> 64 µg/mL
same,MIC,"[5]; S. pneumoniae HAV#351, ATCC 6303",0.06 µg/mL
same,MIC,"[5]; Streptococcus pneumoniae, ATCC6303, S. pneumoniae ATCC 6303, read-out: MIC",0.06 µg/mL
same,MIC,[17],> 128 µg/mL
same,MIC,[18],> 128 µg/mL
same,MIC,[19],> 128 µg/mL
same,MIC,"[20]; E. coli SQ110DTC, WT",16 µg/mL
same,MIC,"[20]; clone SA-3R1, mutation 2058G, selection plate 1 μg/mL FSA-513018b",> 128 µg/mL
same,MIC,"[20]; clone SA-3R2, mutation 2059G, selection plate […] FSA-513018b",> 128 µg/mL
same,MIC,"[20]; clone SA-3R9, mutation 2058G, selection plate […] FSA-513018b",> 128 µg/mL
same,MIC,"[20]; clone SA-3R13, mutation 2059G, selection plate 1 μg/mL FSA-513018b",> 128 µg/mL
C[C@H]1c2cccc(O)c2C(=O)C2=C(O)[C@]3(O)C(=O)C(C(N)=O)=C(O)[C@@H](N(C)C)[C@@H]3[C@@H](O)[C@@H]21 [Doxycycline],MIC,[4]; [23],16 µg/mL
same,MIC,[5]; [24],0.125 µg/mL
